This is an account of results in the NIST ThermoML archive (doi:10.1016/j.tca.2012.04.032).

Series [1] in a line: Molar enthalpy of transition or fusion. As to conditions: Crystal; DSC.
For series [2] the following is noted: Crystal; DTA.

Numbers after ± are expanded uncertainties.

Consider `c1ccc(-c2nc(-c3ccccc3)c(-c3ccccc3)[nH]2)cc1` [2,4,5-triphenyl-1H-imidazole], for which the “Molar enthalpy of transition or fusion” value in series [1] turned out to be 8.92 ± 0.194 kcal/mol. Moreover, in series [2], the Triple point temperature is given as 550.95 ± 0.7 K.

In the case of `c1ccc(-c2ncc[nH]2)cc1` [2-phenyl-1H-imidazole], in series [1], the “Molar enthalpy of transition or fusion” value was determined as 4.26 ± 0.108 kcal/mol. Moreover, in series [2], the Triple point temperature is 419.95 ± 0.7 K.

In the case of `c1ccc(-c2nc[nH]c2-c2ccccc2)cc1` [4,5-diphenylimidazole], in series [1], the “Molar enthalpy of transition or fusion” value came out at 7.73 ± 0.17 kcal/mol. The Triple point temperature in series [2] is 504.95 ± 0.7 K.

Take `c1ccc2cc3ccccc3cc2c1` [anthracene]: the “Molar enthalpy of transition or fusion” value in series [1] turned out to be 6.1 ± 0.136 kcal/mol. Besides, the Triple point temperature in series [2] is reported as 487.75 ± 0.7 K.
